US10104891B2 (priority 2014, dated 2018)

Key:
Type in all cases: in vivo
[1] = system: Pseudoperonospora cubensis; assay: Test 2: control effect against cucumber downy mildew; settings: Pseudoperonospora cubensis, 120 h, control value vs untreated section
Method in brief: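 Cucumber (Sagami hanjiro) at 2-leaf stage sprayed with 4 ppm compound from 10% wettable powder in Tween20 (1/5000); inoculated next day with P. cubensis zoospores, 1.0×10^4 units/ml, 16 hr moist chamber at 22° C. Lesion area rate scored 5 days post-inoculation; control value = (1 − treated/untreated onset area rate)×100.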

Plasmopara viticola = assay: Test 3: control effect against grape downy mildew; settings: Plasmopara viticola, 120 h, control value vs untreated section
Method in brief: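 Neomuscat grape seedlings were sprayed with compound at 4 ppm, diluted from a 10% wettable powder in Tween20 solution. One day later they were inoculated with Plasmopara viticola zoospores at 1.0×10^4 units/ml and held moist at 22° C. for 16 hr. Control value was derived from leaf lesion area at 5 days versus untreated leaves.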

Pythium graminicola = assay: Test 4: control effect against rice damping-off by the Pythium fungus (soil lavage); settings: 1,000 ppm, 2.5 ml test suspension drenched on contaminated soil, rice (koshihikari)
Procedure: A 10% wettable powder created according to the Pharmaceutical Formulation Example 1 was diluted with a Tween20 solution prepared to a concentration of 1/5000, then the compound of formula [1] was prepared to a concentration of 4 ppm. Further, the compound of formula [1] in Test 4 was adjusted to a concentration of 1,000 ppm.
<Test 4 Test of Control Effect Against Rice Damping-Off by the Pythium Fungus (Soil Lavage)>
Distilled water was added to the flora of Pythium graminicola cultured in bentoglass seed culture and stirred with a mixer, and adjusted the contaminated soil to 5 g of bacteria against 1 kg of soil.
In a cell tray having 31×31 mm^2 per cell, 20 ml of the contaminated soil was filled in each cell, and 3 seeds of rice chaff that has been forced to sprout (Species: koshihikari) were seeded, and 5 ml of soil was added for covering, then 2.5 ml of test suspension was drenched, and the seeds were incubated in a moist chamber adjusted to 28° C. for 72 hr to induce sprouting. Then, in a low temperature room of 5° C., the onset of disease was induced for 2 days, then the disease was nurtured for 14 days in a room of 25° C.
The soil was washed, and the apoptosis strain, growth restrained strain, and a healthy strain were measured and the onset rate was calculated by the following formula. Onset rate=[Σ(onset strain number by level×onset index)/(investigated strain×3)]×100 [Onset Index]
1: Growth restrained strain
Also, the following formula was used to compute the control value from the obtained onset index. control value={1−onset area rate at the section applied the test agent/onset area rate of untreated section}×100 Computational formula of the control value: […]

Phytophthora infestans = assay: whole plant or invertebrate; settings: Phytophthora infestans, in Solanum lycopersicum, 96 h, read-out: control value (Test 1)

Compound	pest or weed control at 4 µg/mL [1] [%]	pest or weed control at 4 µg/mL (Plasmopara viticola) [%]	pest or weed control at 1000 ppm (Pythium graminicola) [%]	pest or weed control at 4 µg/mL (Phytophthora infestans) [%]
Cc1cc(C(F)(F)F)nn1CC(=O)N1CCC(c2nc(C3OCc4ccc(F)cc4CO3)cs2)CC1 (centres unmarked) [Compound 1-11, 4-[4-(7-fluoro-1,5-dihydro-3H-2,4-benzodioxepin-3-yl)-2-thiazolyl]-1-[2-[5-methyl-3-(trifluoromethyl)-1H-pyrazole-1-yl]acetyl]piperidine]	100	100	≥ 90	100
Cc1cc(C(F)(F)F)nn1CC(=O)N1CCC(c2nc(C3OCc4cccc(Br)c4CO3)cs2)CC1 (centres unmarked) [Compound 1-15, 4-[4-(6-bromo-1,5-dihydro-3H-2,4-benzodioxepin-3-yl)-2-thiazolyl]-1-[2-[5-methyl-3-(trifluoromethyl)-1H-pyrazole-1-yl]acetyl]piperidine]	100	100	≥ 90	100
CCCCS(=O)(=O)Oc1cccc2c1COC(c1csc(C3CCN(C(=O)Cn4nc(C(F)(F)F)cc4C)CC3)n1)OC2 (centres unmarked) [Compound 1-21, 4-[4-(6-butylsulfonyloxy-1,5-dihydro-3H-2,4-benzodioxepin-3-yl)-2-thiazolyl]-1-[2-[5-methyl-3-(trifluoromethyl)-1H-pyrazole-1-yl]acetyl]piperidine]	100	100	≥ 90	90
CCCS(=O)(=O)Oc1cccc2c1COC(c1csc(C3CCN(C(=O)Cn4nc(C(F)(F)F)cc4C)CC3)n1)OC2 (centres unmarked) [Compound 1-22, 4-[4-(6-propylsulfonyloxy-1,5-dihydro-3H-2,4-benzodioxepin-3-yl)-2-thiazolyl]-1-[2-[5-methyl-3-(trifluoromethyl)-1H-pyrazole-1-yl]acetyl]piperidine]	100	100	≥ 90	100
Cc1cc(C(F)(F)F)nn1CC(=O)N1CCC(c2nc(C3OCc4cccc(Cl)c4CO3)cs2)CC1 (centres unmarked) [Compound 1-23, 4-[4-(6-chloro-1,5-dihydro-3H-2,4-benzodioxepin-3-yl)-2-thiazolyl]-1-[2-[5-methyl-3-(trifluoromethyl)-1H-pyrazole-1-yl]acetyl]piperidine]	100	100	≥ 90	100
Cc1cc(C(F)(F)F)nn1CC(=O)N1CCC(c2nc(C3OCc4c(OS(C)(=O)=O)ccc([N+](=O)[O-])c4CO3)cs2)CC1 (centres unmarked) [Compound 1-32, 4-[4-(6-methylsulfonyloxy-9-nitro-1,5-dihydro-3H-2,4-benzodioxepin-3-yl)-2-thiazolyl]-1-[2-[5-methyl-3-(trifluoromethyl)-1H-pyrazole-1-yl]acetyl]piperidine]	100	100	≥ 90	100
Cc1cc(C(F)(F)F)nn1CC(=O)N1CCC(c2nc(C3OCc4cccc(O)c4CO3)cs2)CC1 (centres unmarked) [Compound 1-33, 4-[4-(6-hydroxy-1,5-dihydro-3H-2,4-benzodioxepin-3-yl)-2-thiazolyl]-1-[2-[5-methyl-3-(trifluoromethyl)-1H-pyrazole-1-yl]acetyl]piperidine]	100	100	≥ 90	100
Cc1cc(C(F)(F)F)nn1CC(=O)N1CCC(c2nc(C3OCc4cccc(OC(=O)C5CC5)c4CO3)cs2)CC1 (centres unmarked) [Compound 1-34, 4-[4-(6-cyclopropylcarbonyloxy-1,5-dihydro-3H-2,4-benzodioxepin-3-yl)-2-thiazolyl]-1-[2-[5-methyl-3-(trifluoromethyl)-1H-pyrazole-1-yl]acetyl]piperidine]	100	100	≥ 90	100
Cc1cc(C(F)(F)F)nn1CC(=O)N1CCC(c2nc(C3OCc4cccc(OS(=O)(=O)C(F)(F)F)c4CO3)cs2)CC1 (centres unmarked) [Compound 1-36, 4-[4-[6-(trifluoromethyl)sulfonyloxy-1,5-dihydro-3H-2,4-benzodioxepin-3-yl]-2-thiazolyl]-1-[2-[5-methyl-3-(trifluoromethyl)-1H-pyrazole-1-yl]acetyl]piperidine]	100	100	≥ 90	100
Cc1cc(C(F)(F)F)nn1CC(=O)N1CCC(c2nc(C3OCc4ccc(Cl)cc4CO3)cs2)CC1 (centres unmarked) [Compound 1-40, 4-[4-(7-chloro-1,5-dihydro-3H-2,4-benzodioxepin-3-yl)-2-thiazolyl]-1-[2-[5-methyl-3-(trifluoromethyl)-1H-pyrazole-1-yl]acetyl]piperidine]	100	100	≥ 90	100
Cc1ccc(OS(C)(=O)=O)c2c1COC(c1csc(C3CCN(C(=O)Cn4nc(C(F)F)cc4C(F)F)CC3)n1)OC2 (centres unmarked) [Compound 1-44, 4-[4-(6-methyl-9-methylsulfonyloxy-1,5-dihydro-3H-2,4-benzodioxepin-3-yl)-2-thiazolyl]-1-[2-[3,5-bis(difluoromethyl)-1H-pyrazole-1-yl]acetyl]piperidine]	100	100	≥ 90	100
Cc1cc(C(F)(F)F)nn1CC(=O)N1CCC(c2nc(C3OCc4ccc(F)c(OS(C)(=O)=O)c4CO3)cs2)CC1 (centres unmarked) [Compound 1-45, 4-[4-(7-fluoro-6-methylsulfonyloxy-1,5-dihydro-3H-2,4-benzodioxepin-3-yl)-2-thiazolyl]-1-[2-[5-methyl-3-(trifluoromethyl)-1H-pyrazole-1-yl]acetyl]piperidine]	100	100	≥ 90	100
Cc1cc(C(F)(F)F)nn1CC(=O)N1CCC(c2nc(C3OCc4cccc(S(C)(=O)=O)c4CO3)cs2)CC1 (centres unmarked) [Compound 1-47, 4-[4-(6-methylsulfonyl-1,5-dihydro-3H-2,4-benzodioxepin-3-yl)-2-thiazolyl]-1-[2-[5-methyl-3-(trifluoromethyl)-1H-pyrazole-1-yl]acetyl]piperidine]	100	100	≥ 90	100
O=C(Cn1nc(C(F)F)cc1C(F)F)N1CCC(c2nc(C3OCc4ccc([N+](=O)[O-])cc4CO3)cs2)CC1 (centres unmarked) [Compound 1-49, 4-[4-(7-nitro-1,5-dihydro-3H-2,4-benzodioxepin-3-yl)-2-thiazolyl]-1-[2-[3,5-bis(difluoromethyl)-1H-pyrazole-1-yl]acetyl]piperidine]	100	100	≥ 90	100
O=C(Cn1nc(C(F)(F)F)cc1C(F)(F)F)N1CCC(c2nc(C3OCc4c(F)ccc(F)c4CO3)cs2)CC1 [Compound 1-50, 4-[4-(6,9-difluoro-1,5-dihydro-3H-2,4-benzodioxepin-3-yl)-2-thiazolyl]-1-[2-[3,5-bis(trifluoromethyl)-1H-pyrazole-1-yl]acetyl]piperidine]	100	100	≥ 90	100
O=C(Cn1nc(C(F)F)cc1C(F)F)N1CCC(c2nc(C3OCc4c(F)ccc(F)c4CO3)cs2)CC1 [Compound 1-51, 4-[4-(6,9-difluoro-1,5-dihydro-3H-2,4-benzodioxepin-3-yl)-2-thiazolyl]-1-[2-[3,5-bis(difluoromethyl)-1H-pyrazole-1-yl]acetyl]piperidine]	100	100	≥ 90	100
COc1ccc(Br)c2c1COC(c1csc(C3CCN(C(=O)Cn4nc(C(F)F)cc4C(F)F)CC3)n1)OC2 (centres unmarked) [Compound 1-57, 4-[4-(6-bromo-9-methoxy-1,5-dihydro-3H-2,4-benzodioxepin-3-yl)-2-thiazolyl]-1-[2-[3,5-bis(difluoromethyl)-1H-pyrazole-1-yl]acetyl]piperidine]	100	100	≥ 90	100
